Measurements taken from publication PMC10905995, “Strategy for the Enzymatic Acylation of the Apple Flavonoid Phloretin Based on Prior α-Glucosylation” (Journal of Agricultural and Food Chemistry, 2024).
Values after ≈ are worked out from the molar mass of the structure shown.

Key:
[1] = Aqueous solubility (saturated conditions, 3 days, UV 297 nm); format: physicochemical; conditions: water, 25 °C, thermodynamic from solid
Description: The compounds were incubated at 25 °C in water (saturated conditions) during 3 days under orbital stirring (1000 rpm). Then, the samples were centrifuged, and the supernatants (200 μL) were analyzed in triplicate in a 96-well plate, using a phloretin calibration curve in methanol (0–200 μg/mL). The absorbance was measured at 297 nm in a UV–vis spectrophotometer (Tecan Infinite M200).

[2] = In vitro percutaneous absorption, Franz static diffusion cells; format: in vitro ADME; conditions: pig skin biopsies, 24 h exposure; for effect of acylation on skin absorption: versus phloretin and 4′-O-α-glucoside
Description: The study was carried out in vitro with pig biopsies placed on Franz static diffusion cells (3 mL, 1.86 cm^2 of exposed area, […], Lara-Spiral, Courtenon, France) in order to determine the distribution of the active compound (API) at the different skin layers after an exposure time of 24 h. All materials and procedures for this test have been described in a previous report employing phloretin and two glucosides.[33] The concentration of the extracted active compound was determined with the HPLC method described before.
Figure 6 In vitro percutaneous absorption of acylated derivatives of phloretin and their precursors (phloretin and its 4′-O-α-glucoside) within the different skin layers. W is the surface excess, SC is the stratum corneum, E is the epidermis, D is the dermis, FR is the fluid receptor, and Perc. Abs. is the percutaneous absorption. The results are expressed as μg/cm^2 of the active pharmaceutical ingredient (API). Mean values ± standard deviations, n = 3; *p < 0.05 vs phloretin; ^#p < 0.05 vs α-Glc-phloretin.

[3] = design: method as in doi:10.1002/adsc.202100201; conditions: cited from earlier work

Row | Structure (SMILES) | solubility at 3 days [1] [µg/mL] | effect of acylation on skin absorption [2] | percutaneous absorption, increase versus phloretin and 4′-O-α-glucoside [2] | aqueous solubility greater than aglycone ([3]; versus phloretin aglycone) [fold] | solubility ([3]; water, 25 °C, data available in a previous article) [µg/mL]
1 | CCCCCCCC(=O)OC[C@H]1O[C@H](Oc2cc(O)c(C(=O)CCc3ccc(O)cc3)c(O)c2)[C@H](O)[C@@H](O)[C@@H]1O [1a, phloretin 4′-O-(6-O-octanoyl)-α-D-glucopyranoside] | 22.1 ± 0.5 (≈ 39.3 µM) | no significant effect |  |  | 
2 | CCCCCCCCCCCCCCCC(=O)OC[C@H]1O[C@H](Oc2cc(O)c(C(=O)CCc3ccc(O)cc3)c(O)c2)[C@H](O)[C@@H](O)[C@@H]1O [1c, phloretin 4′-O-(6-O-palmitoyl)-α-D-glucopyranoside] | 7.1 ± 0.3 (≈ 10.5 µM) | no significant effect |  |  | 
3 | CCCCCCCCCCCC(=O)OC[C@H]1O[C@H](Oc2cc(O)c(C(=O)CCc3ccc(O)cc3)c(O)c2)[C@H](O)[C@@H](O)[C@@H]1O [1b, phloretin 4′-O-(6-O-lauroyl)-α-D-glucopyranoside] | 6 ± 0.2 (≈ 9.7 µM) |  | approximately 3 fold |  | 
4 | O=C(CCc1ccc(O)cc1)c1c(O)cc(O[C@H]2O[C@H](CO)[C@@H](O)[C@H](O)[C@H]2O)cc1O [phloretin 4′-O-α-D-glucoside, phloretin 4′-O-α-D-glucopyranoside] |  |  |  | 71 | 1644 ± 101 (≈ 3770 µM)
